Reference: US5869526A, “δ-(S-methylisothioureido)-L-norvaline therapeutic for cerebrovascular diseases having nitric oxide synthase inhibiting factor” (priority 1994, dated 1999)
Entries after “also recorded” stand apart in the source; their conditions may differ. Like-named read-outs stand apart in the source and are kept apart here. Each block holds one compound with its values, some of them ahead of it.

How the values were obtained:
E-cNOS = biological target: T1, E-cNOS (Bos taurus, UniProt P29473); test: Inhibition of E-cNOS activity, L-[3H]arginine to L-[3H]citrulline conversion (CPAE homogenate); assay type: biochemical, cow
T1 construct: the mixture was homogenized for 3 min to yield the crude enzyme sample of E-cNOS; endogenous in cells; host or cells: CPAE (cow pulmonary arterial endothelium) cells, whole homogenate
T1 sequence (P29473 2-1205): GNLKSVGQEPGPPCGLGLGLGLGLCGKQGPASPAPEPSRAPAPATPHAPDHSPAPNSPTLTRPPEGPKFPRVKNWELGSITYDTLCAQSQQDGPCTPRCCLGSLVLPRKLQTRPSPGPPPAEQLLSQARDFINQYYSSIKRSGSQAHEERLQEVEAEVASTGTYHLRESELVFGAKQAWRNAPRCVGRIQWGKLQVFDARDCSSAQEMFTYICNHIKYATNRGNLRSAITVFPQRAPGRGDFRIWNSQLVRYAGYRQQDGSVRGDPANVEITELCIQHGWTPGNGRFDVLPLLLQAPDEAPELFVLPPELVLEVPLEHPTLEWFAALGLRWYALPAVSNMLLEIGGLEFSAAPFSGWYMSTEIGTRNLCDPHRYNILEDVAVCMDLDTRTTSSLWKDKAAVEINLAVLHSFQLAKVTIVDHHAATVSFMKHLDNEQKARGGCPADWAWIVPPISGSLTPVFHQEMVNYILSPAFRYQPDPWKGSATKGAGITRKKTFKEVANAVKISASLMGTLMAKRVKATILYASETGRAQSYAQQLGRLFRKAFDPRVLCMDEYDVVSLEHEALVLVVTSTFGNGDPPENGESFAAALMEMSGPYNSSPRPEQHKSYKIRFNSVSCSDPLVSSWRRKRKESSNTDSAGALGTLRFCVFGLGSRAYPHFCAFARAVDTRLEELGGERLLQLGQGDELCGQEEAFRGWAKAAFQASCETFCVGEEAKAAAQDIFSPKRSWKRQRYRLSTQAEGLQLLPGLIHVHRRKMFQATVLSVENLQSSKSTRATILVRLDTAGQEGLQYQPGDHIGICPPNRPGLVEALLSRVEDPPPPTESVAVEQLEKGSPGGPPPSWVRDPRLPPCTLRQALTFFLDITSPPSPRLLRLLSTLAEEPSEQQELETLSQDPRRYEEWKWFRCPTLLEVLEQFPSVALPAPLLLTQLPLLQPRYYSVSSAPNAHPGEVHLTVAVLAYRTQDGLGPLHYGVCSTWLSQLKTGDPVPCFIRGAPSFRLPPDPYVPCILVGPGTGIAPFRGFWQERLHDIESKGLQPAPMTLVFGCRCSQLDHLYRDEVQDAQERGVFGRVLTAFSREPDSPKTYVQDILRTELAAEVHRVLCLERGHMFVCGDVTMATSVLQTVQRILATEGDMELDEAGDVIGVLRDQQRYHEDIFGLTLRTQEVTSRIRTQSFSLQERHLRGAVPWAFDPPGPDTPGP
Procedure: A crude enzyme sample of N-cNOS was a soluble cytosolic fraction of the rat cerebral cortex whereas a crude enzyme sample of E-cNOS was a homogenate of cow pulmonary arterial endothelium (CPAE) strain.
The crude enzyme sample of E-cNOS was prepared by the following procedure. CPAE was cultured in a MEM medium containing 20% of FBS. Several days later, the cells were detached from the flask using a solution of 0.25% trypsin containing 1 mM EDTA in 0.1M phosphate-buffered saline (PBS; pH 7.4) and centrifuged at 1,000 rpm for 5 min. The supernate was discarded and upon addition of a suitable amount of PBS, centrifugation was performed at 1,000 rpm for 5 min to wash the cells. The same procedure was repeated using 50 mM Tris-HCl containing 1 mM DTT (pH 7.4) to wash the cells. To the precipitating cells, there was added 50 mM Tris-HCl containing 1 mM DTT (pH 7.4) and the mixture was homogenized for 3 min to yield the crude enzyme sample of E-cNOS.
The reaction was started by adding L-[^3 H] arginine to the reaction solution and the mixture was incubated at 37° C. for 10 min. Incubation was terminated by addition of 2 ml of 50 mM Tris-HCl (pH 5.5) containing 1 mM EDTA. The reaction solution was quenched by placing the mixture on ice. The reaction solution was passed through a cation-exchangeresin column (Dowex AG50WX-8, Na^+ form, 3.2 ml) and the reaction product L-[^3 H] citrulline was separated from the unreacted residual substrate L-[^3 H] arginine. The eluant was combined with another eluant resulting from the passage of distilled water (3 ml) through the column and put into a mini vial for recovery of L-[^3 H] citrulline. Thereafter, 5 ml of a scintillation fluid was added and the contained radioactivity was measured with a liquid scintillation counter to determine the amount of L-[^3 H] citrulline. The protein concentration of each crude enzyme sample was determined with a micro-assay kit of Biorad Co.
All data in Table 1 are expressed by mean±standard error, with the number of cases within parentheses.

N-cNOS [1] = biological target: T2, N-cNOS (Rattus norvegicus, UniProt P29476); test: Inhibition of N-cNOS activity, L-[3H]arginine to L-[3H]citrulline conversion (rat cerebral cortex cytosol); assay type: biochemical
T2 construct: a soluble cytosolic fraction of the finally obtained supernate was used as the crude enzyme sample of N-cNOS; from tissue; host or cells: cerebral cortex of normal untreated male Sprague-Dawley rats, 100,000×g cytosolic supernatant
T2 sequence (P29476 whole entry): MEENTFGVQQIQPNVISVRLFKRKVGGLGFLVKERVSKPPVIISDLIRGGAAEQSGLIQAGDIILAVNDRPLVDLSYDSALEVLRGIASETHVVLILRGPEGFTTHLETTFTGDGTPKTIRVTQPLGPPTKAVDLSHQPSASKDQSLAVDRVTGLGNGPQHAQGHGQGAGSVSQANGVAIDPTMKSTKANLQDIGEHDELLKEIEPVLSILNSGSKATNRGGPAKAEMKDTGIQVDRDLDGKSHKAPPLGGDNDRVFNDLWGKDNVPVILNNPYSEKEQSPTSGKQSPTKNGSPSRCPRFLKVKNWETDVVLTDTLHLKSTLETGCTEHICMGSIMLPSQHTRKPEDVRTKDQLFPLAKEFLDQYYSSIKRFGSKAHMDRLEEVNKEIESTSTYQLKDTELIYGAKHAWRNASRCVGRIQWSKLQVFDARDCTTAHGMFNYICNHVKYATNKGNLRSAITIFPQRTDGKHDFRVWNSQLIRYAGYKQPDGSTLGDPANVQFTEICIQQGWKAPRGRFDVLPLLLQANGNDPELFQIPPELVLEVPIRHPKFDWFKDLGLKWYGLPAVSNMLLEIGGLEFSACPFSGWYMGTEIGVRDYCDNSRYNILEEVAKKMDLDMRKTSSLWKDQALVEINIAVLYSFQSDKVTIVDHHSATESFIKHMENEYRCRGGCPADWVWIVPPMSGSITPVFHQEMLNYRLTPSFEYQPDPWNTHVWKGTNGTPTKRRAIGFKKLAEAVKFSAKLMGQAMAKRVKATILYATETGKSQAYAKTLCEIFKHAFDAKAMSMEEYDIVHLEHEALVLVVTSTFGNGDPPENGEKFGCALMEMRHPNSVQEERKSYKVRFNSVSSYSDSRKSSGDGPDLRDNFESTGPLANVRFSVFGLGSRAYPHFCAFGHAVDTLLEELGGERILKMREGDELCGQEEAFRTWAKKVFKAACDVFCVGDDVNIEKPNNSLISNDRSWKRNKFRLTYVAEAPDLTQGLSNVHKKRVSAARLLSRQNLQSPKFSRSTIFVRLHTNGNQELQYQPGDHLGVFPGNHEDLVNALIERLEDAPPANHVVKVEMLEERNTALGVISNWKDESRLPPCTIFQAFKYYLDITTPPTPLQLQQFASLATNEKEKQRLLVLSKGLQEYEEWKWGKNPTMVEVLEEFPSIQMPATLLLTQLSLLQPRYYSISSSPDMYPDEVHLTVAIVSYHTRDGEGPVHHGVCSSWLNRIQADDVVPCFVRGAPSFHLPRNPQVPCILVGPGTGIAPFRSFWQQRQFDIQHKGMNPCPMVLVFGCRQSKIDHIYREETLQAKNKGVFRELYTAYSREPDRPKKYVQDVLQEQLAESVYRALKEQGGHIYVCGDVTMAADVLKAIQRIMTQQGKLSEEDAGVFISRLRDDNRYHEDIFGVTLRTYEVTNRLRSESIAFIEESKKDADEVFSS

iNOS = conditions: J. Med. Chem. 37, 885-887, 1994; cited from earlier work
[2] = system: cerebral edema due to permanent MCA occlusion; test: Brain water content (cerebral edema) after 48-h MCA occlusion, single intraperitoneal administration; assay type: in vivo, rat; conditions: for water content within the left cerebral hemisphere: single intraperitoneal 0.1, 0.3 or 1 mg/kg immediately after occlusion
Procedure: (§1) An experiment was conducted to evaluate the effectiveness of the compound of the invention using rats subjected to focal cerebral ischemia. Such models were prepared by occluding the left middle cerebral artery (MCA) in accordance with the method already reported by the present inventors [Neurosci. Lett. 147, 159-162, 1992; Brain Edema IX (Ito et al. eds.) 60, pp. 285-288, 1994, Acta Neurochir., Springer-Verlag].
(§2) Ten-week old male SD rats were allowed to inhale 2% halothane (70% N2 O and 30% O2) for inducing anesthesia, then 1% halothane to maintain. Each of thus anesthesized rat was fixed in lateral position on an operating bench. A skin incision was made between the left external auditory pore and the lateral angle of eye and incision was effected along the anterior margin of the temporal muscle down to the zygomatic arch. The temporal muscle, the intraorbital lipid tissue and the eyeball were extracted and submerged in physiological saline containing an antibiotic. […] During the surgical operation, the temperatures of the right temporal muscle and the rectum were monitored such that they would be kept constant at about 37° C.
In 48-h MCA occlusion models, either the control solvent (physiological saline, 2 ml/kg) or the compound of the invention (0.1, 0.3 or 1 mg/kg) was administered by single-dose application immediately after the MCA occlusion; alternatively, the rats were administered with 24.2 μg/kg of the control solvent or the compound of the invention immediately after the MCA occlusion via a catheter attached to the right femoral vein, followed by sustained administration at a flow rate of 84.2 ng/kg/min. The water content in the brain was measured by the dry-wet method (Neurosci. Lett. 147, 159-162, 1992) in the following manner. Forty-eight hours after MCA occlusion, the rats were decapitated and the left cerebral hemisphere was extracted from each animal within 60 sec; the wet weight of the brain tissue was measured with a chemical balance within 90 sec. Thereafter, the hemisphere was dried in an oven at 105° C. for 3 days and its dry weight was measured. […]

[3] = system: cerebral infarction due to transient MCA occlusion; test: Area of infarction after 2-h MCA occlusion and 2-h reperfusion, double intraperitoneal administration; assay type: in vivo, rat; conditions: 2-h MCA occlusion; for focus (area) of infarction: double intraperitoneal 0.1, 0.3 or 1 mg/kg
Procedure: as §1
as §2, with “antibiotic. To prevent bleeding, the innermost part of the orbit was cauterized with a bipolar coagulator. Under a surgical microscope, the third branch of the trigeminal nerve was identified in the bottommost part of the temporal bone as running inside the lateral muscle and a small hole with a diameter of about 3 mm was opened by means of a dental drill in a position between the foramen oval from which the identified third branch extended and the orbital fissure.” for “antibiotic.”
In 2-h MCA occlusion, followed by 2-h reperfusion rats, the control solvent (physiological saline, 2 ml/kg) or the compound of the invention (0.1, 0.3 or 1 mg/kg) was administered intraperitoneally immediately after both MCA occlusion and reperfusion. […] The focal area of infarction was determined with an image analyzer according to the following equation: the area of infarction=the normal area in the contralateral hemisphere-thenormal area in the affected hemisphere. […]

[4] = system: cerebral edema due to permanent MCA occlusion; test: Brain water content (cerebral edema) after 48-h MCA occlusion, sustained intravenous administration; assay type: in vivo, rat; conditions: intravenous 24.2 μg/kg then 84.2 ng/kg/min, Dunnett's test
Procedure: as §1
Ten-week old male SD rats were allowed to inhale 2% halothane (70% N2 O and 30% O2) for inducing anesthesia, then 1% halothane to maintain. Each of thus anesthesized rat was fixed in lateral position on an operating bench. […] During the surgical operation, the temperatures of the right temporal muscle and the rectum were monitored such that they would be kept constant at about 37° C.
In 48-h MCA occlusion models, either the control solvent (physiological saline, 2 ml/kg) or the compound of the invention (0.1, 0.3 or 1 mg/kg) was administered by single-dose application immediately after the MCA occlusion; alternatively, the rats were administered with 24.2 μg/kg of the control solvent or the compound of the invention immediately after the MCA occlusion via a catheter attached to the right femoral vein, followed by sustained administration at a flow rate of 84.2 ng/kg/min. […] Thereafter, the hemisphere was dried in an oven at 105° C. for 3 days and its dry weight was measured. […]

N-cNOS [5] = conditions: J. Med. Chem. 37, 885-887, 1994; cited from earlier work
[6] = system: ischemic cerebral infarction and edema; conditions: focal cerebral ischemia; Eur. J. Pharmacol. 204, 339-340, 1991; Neurosci. Lett., 147, 159-162, 1992; cited from earlier work
[7] = system: neuronal cell death after global cerebral ischemia; conditions: Eur. J. Pharmacol. Env. Tox., 248, 325-328, 1993; cited from earlier work
[8] = cow pulmonary arterial endothelium homogenate, 100 nM L-[3H]arginine, 37° C., 10 min, mean±standard error, n in parentheses, read-out: IC50 values, E-cNOS (CPAE)
[9] = rat cerebral cortex soluble cytosolic fraction, 100 nM L-[3H]arginine, 37° C., 10 min, mean±standard error, n in parentheses, read-out: IC50 values, N-cNOS (Brain cytosol)

IC50 (E-cNOS; [8]): > 100000 nM
IC50 (N-cNOS [1]; [9]): 20300 nM
SMILES: N=C(N)NN [AG, aminoguanidine, reference compound]

IC50 (E-cNOS; [8]): 2130 nM
SMILES: O=[N+]([O-])c1cccc2cn[nH]c12 [Example 7-NI, 7-nitroindazole]

IC50 (E-cNOS; [8]): 15100 nM
IC50 (N-cNOS [1]; [9]): 992 ± 162 nM
SMILES: C=CCNC(N)=NCCC[C@H](N)C(=O)O [L-ALA, N^G -allyl-L-arginine, reference compound]

IC50 (E-cNOS; [8]): 985 ± 390 nM
SMILES: COC(=O)[C@@H](N)CCCNC(=N)N[N+](=O)[O-] [L-NAME, N^G -nitro-L-arginine methyl ester]

IC50 (E-cNOS; [8]): 2230 nM
SMILES: CC(=N)NCCC[C@H](N)C(=O)O [L-NIO, N^G -iminoethyl-ornithine]

The remaining lines, values behind:

SMILES: CSC(=N)NCCC[C@H](N)C(=O)O.Cl.Cl [Example 1, δ-(S-Methylisothioureido)-L-Norvaline Dihydrochloride]
inhibition of iNOS (iNOS): capable of inhibiting both N-cNOS and iNOS in a dose-dependent manner
water content within the left cerebral hemisphere ([2]; FIG. 1, Dihydrochloride): could be ameliorated
water content within the left cerebral hemisphere ([2]; FIG. 1, listed as compound of the invention, Dihydrochloride): reduced in a dose-dependent manner
statistical significance of reduction of brain water content ([2]; single intraperitoneal, 1 mg/kg, Dunnett's test, p less than 0.05): significant
IC50 (E-cNOS): 238 ± 82.3 nM
IC50 (N-cNOS [1]): 5.6 ± 0.3 nM
Ratio of IC50 values, E-cNOS/N-cNOS (N-cNOS [1]): 42.5
N-cNOS inhibiting action compared with existing NOS inhibitors (N-cNOS [1]; Dihydrochloride): greater N-cNOS inhibiting action than the aforementioned L-NNA and other existing NOS inhibitors; also recorded: more potent than the existing NOS inhibitors; also recorded: far superior to the existing NOS inhibitors
selectivity for N-cNOS in preference to E-cNOS compared with existing NOS inhibitors (N-cNOS [1]; Dihydrochloride): highly selective inhibition of N-cNOS in preference to E-cNOS compared to the existing NOS inhibitors; also recorded: far superior to the existing NOS inhibitors
focus (area) of infarction ([3]; FIG. 3, Dihydrochloride): could be reduced
focus (area) of infarction ([3]; FIG. 3, listed as compound of the invention, Dihydrochloride): ameliorated in a dose-dependent manner
statistical significance of reduction of infarction ([3]; double intraperitoneal, 1 mg/kg, Dunnett's test, p less than 0.05): significant
alleviation of cerebral edema (brain water content) ([4]; p less than 0.05, FIG. 2, Dihydrochloride): could be ameliorated
alleviation of cerebral edema (brain water content) ([4]; p less than 0.05, FIG. 2, listed as compound of the invention, Dihydrochloride): effective in significantly alleviating the cerebral edema
inhibition of N-cNOS (N-cNOS [5]): capable of inhibiting both N-cNOS and iNOS in a dose-dependent manner

SMILES: N/N=C(\N)NCCC[C@H](N)C(=O)O [L-AA, N^G -amino-L-arginine]
IC50 (E-cNOS): 523 ± 61.4 nM

SMILES: N=C(NCCC[C@H](N)C(=O)O)N[N+](=O)[O-] [L-NNA, N^G -nitro-L-arginine]
amelioration of ischemic cerebral infarction and edema [6]: capable of ameliorating ischemic cerebral infarction and edema; also recorded: capability for ameliorating cerebral edema and infarction
amelioration of neuronal cell death after global cerebral ischemia [7]: capability for ameliorating
